In experiment [1] the target is T1, CRF2R (Homo sapiens, UniProt Q13324).
T1 sequence (Q13324 1-411): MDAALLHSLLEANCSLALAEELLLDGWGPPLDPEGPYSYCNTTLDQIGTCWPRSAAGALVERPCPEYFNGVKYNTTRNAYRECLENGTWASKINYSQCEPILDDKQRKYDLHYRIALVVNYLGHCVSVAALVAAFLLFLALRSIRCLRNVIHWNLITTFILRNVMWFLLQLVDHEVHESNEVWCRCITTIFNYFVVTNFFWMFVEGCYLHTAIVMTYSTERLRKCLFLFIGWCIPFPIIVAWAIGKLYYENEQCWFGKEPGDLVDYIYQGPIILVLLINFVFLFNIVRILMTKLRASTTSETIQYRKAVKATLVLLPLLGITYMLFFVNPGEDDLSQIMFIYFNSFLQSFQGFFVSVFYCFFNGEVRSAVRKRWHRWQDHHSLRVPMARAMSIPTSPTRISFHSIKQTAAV
The experiment is described as follows: CRF2R agonist activation (EC50 / Emax), called comparative CRF binding. The following applies: for Emax: read-out: CRF2R Emax. The experiment is classed as cell-based. The gist of the method:
(§1)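 CRFR-expressing cells + peptide vs vehicle; read-out cAMP (lysate assay) or CRE-linked reporter expression (luciferase, CAT, fluorescent protein, alkaline phosphatase, etc.). Signal compared against vehicle-treated cells.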

Experiment [2] concerns the target T2, CRF1R (Homo sapiens, UniProt P34998).
T2 sequence (P34998 24-415): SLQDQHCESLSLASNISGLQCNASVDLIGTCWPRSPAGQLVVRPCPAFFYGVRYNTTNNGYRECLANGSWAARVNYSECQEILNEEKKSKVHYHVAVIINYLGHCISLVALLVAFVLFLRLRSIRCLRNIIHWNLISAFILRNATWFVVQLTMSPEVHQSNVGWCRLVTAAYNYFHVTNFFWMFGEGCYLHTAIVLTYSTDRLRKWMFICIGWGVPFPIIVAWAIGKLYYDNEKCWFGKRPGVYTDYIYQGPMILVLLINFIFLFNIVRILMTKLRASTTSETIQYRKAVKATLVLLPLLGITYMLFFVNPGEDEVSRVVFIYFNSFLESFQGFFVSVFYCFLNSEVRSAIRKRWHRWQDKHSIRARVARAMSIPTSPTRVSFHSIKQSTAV
As to the kind of experiment: CRF1R agonist activation (EC50 / Emax), called comparative CRF binding. Type of experiment: cell-based. The following applies: for Emax: read-out: CRF1R Emax. The procedure, abridged: as §1

The structures appear in SMILES notation. pEC50: −log10 of the molar value. Peptide text beside a SMILES is read from it.

For `CC[C@H](C)[C@H](NC(=O)[C@H](C)NC(=O)[C@H](CC(N)=O)NC(=O)[C@H](CCC(N)=O)NC(=O)[C@H](CCC(=O)O)NC(=O)[C@H](C)NC(=O)[C@H](CCCNC(=N)N)NC(=O)[C@H](CCC(=O)O)NC(=O)[C@H](CCCNC(=N)N)NC(=O)[C@H](CCC(N)=O)NC(=O)[C@H](CO)NC(=O)[C@H](CCC(N)=O)NC(=O)[C@@H](NC(=O)[C@H](CCCNC(=N)N)NC(=O)[C@H](C)NC(=O)[C@H](CC(C)C)NC(=O)[C@H](CCC(=O)O)NC(=O)[C@H](CC(C)C)NC(=O)[C@H](CC(C)C)NC(=O)[C@@H](NC(=O)[C@H](CCCNC(=N)N)NC(=O)[C@H](CC(C)C)NC(=O)[C@H](CC(C)C)NC(=O)[C@H](CC(C)C)NC(=O)[C@H](CC(C)C)NC(=O)[C@@H]1CCCN1C(=O)[C@H](CC(C)C)NC(=O)[C@H](CC(=O)O)NC(=O)[C@@H](NC(=O)[C@H](CO)NC(=O)[C@H](CC(C)C)NC(=O)[C@H](CO)NC(=O)[C@@H]1CCCN1C(=O)[C@H](CC(N)=O)NC(=O)[C@@H](N)CC(=O)O)[C@@H](C)CC)[C@@H](C)O)[C@@H](C)O)C(=O)N[C@H](C(=O)N[C@@H](Cc1ccccc1)C(=O)N[C@@H](C)C(=O)N[C@@H](CO)C(=O)N[C@H](C(N)=O)C(C)C)[C@@H](C)CC` [compound 174] (H-DNPSLSIDLPLLLLRTLLELARTQSQRERAEQNAIIFASV-NH2; N-terminus assumed), the Emax in experiment [1] was determined as 97.2%; in experiment [2], 29.1%.
Regarding `CC[C@H](C)[C@H](NC(=O)[C@H](C)NC(=O)[C@H](CC(N)=O)NC(=O)[C@H](CCC(N)=O)NC(=O)[C@H](CCC(=O)O)NC(=O)[C@H](C)NC(=O)[C@H](CCCNC(=N)N)NC(=O)[C@H](CCC(=O)O)NC(=O)[C@H](CCCNC(=N)N)NC(=O)[C@H](CCC(N)=O)NC(=O)[C@H](CO)NC(=O)[C@H](CCC(N)=O)NC(=O)[C@@H](NC(=O)[C@H](CCCNC(=N)N)NC(=O)[C@H](C)NC(=O)[C@H](CC(C)C)NC(=O)[C@H](CCC(=O)O)NC(=O)[C@H](CC(C)C)NC(=O)[C@H](CC(C)C)NC(=O)[C@@H](NC(=O)[C@H](CCCNC(=N)N)NC(=O)[C@H](CC(C)C)NC(=O)[C@H](CC(C)C)NC(=O)[C@@H](NC(=O)[C@H](CC(C)C)NC(=O)[C@@H]1CCCN1C(=O)[C@H](CC(C)C)NC(=O)[C@H](CC(=O)O)NC(=O)[C@@H](NC(=O)[C@H](CO)NC(=O)[C@H](CC(C)C)NC(=O)[C@H](CO)NC(=O)[C@@H]1CCCN1C(=O)[C@H](CC(N)=O)NC(=O)[C@@H](N)CC(=O)O)[C@@H](C)CC)[C@@H](C)CC)[C@@H](C)O)[C@@H](C)O)C(=O)N[C@H](C(=O)N[C@@H](Cc1ccccc1)C(=O)N[C@@H](C)C(=O)N[C@@H](CO)C(=O)N[C@H](C(N)=O)C(C)C)[C@@H](C)CC` [compound 175] (H-DNPSLSIDLPLILLRTLLELARTQSQRERAEQNAIIFASV-NH2; N-terminus assumed), the pEC50 is 8.27 in experiment [1] (read-out: CRF2R EC50) and at most 6.00 in experiment [2] (read-out: CRF1R EC50). The Emax in experiment [1] was determined as 92.2%; in experiment [2], 34.8%.

The values above are taken from patent publication US6936585B2, “Corticotropin releasing factor 2 receptor agonists” (priority 2002, dated 2005).
